How the values were obtained:
Assay type in all cases: cell-based
[1] = system: WM266.4; experiment: Single-dose cell viability of forskolin-treated cells with MAPK-pathway and HDAC inhibitors; conditions: sub-lethal doses; Panobinostat 10 nM, Vorinostat 1.5 μM, Entinostat 1.5 μM; 96 hrs
Experimental: Twenty-four hours after seeding, serial dilutions of the relevant compound were prepared in DMSO to 1000× stocks. Drug stocks were then diluted 1:100 into appropriate growth media and added to cells at a dilution of 1:10 (lx final), yielding drug concentrations ranging from 100 μM to 1×10-5 μM, with the final volume of DMSO not exceeding 1%. When indicated, forskolin (10 μM), IBMX (100 μM), dbcAMP (100 μM) were added concurrent with MAPK-pathway inhibitors. Cells were incubated for 96 h following addition of drug. Cell viability was measured using CellTiterGlo viability assay (Promega). Viability was calculated as a percentage of control (DMSO treated cells). A minimum of six replicates were performed for each cell line and drug combination. Data from growth-inhibition assays were modeled using a nonlinear regression curve fit with a sigmoid dose-response. […] For single-dose studies, WM266.4 were seeded at 5,000 cells/well in 96-well, white-walled, clear bottom plates and the identical protocol (above) was followed, using a single dose of indicated drug.

[2] = system: A375; experiment: PLX4720 and MAPK inhibitor sensitivity of ORF-expressing A375 (secondary screen); conditions: for effect of ectopic GEF expression on sensitivity to the inhibitor: A375 transfected with GEF ORFS; for sensitivity of A375 to the inhibitor: parental A375 cell line
Experimental: A375 (1.5×10^3) and SKMEL28 cells (3×10^3) were seeded in 96-well plates for 18 h. ORF-expressing lentivirus was added at a 1:10 dilution in the presence of 8 μg/ml polybrene, and centrifuged at 2250 RPM and 37° C. for 1 h. Following centrifugation, virus-containing media was changed to normal growth media and allowed to incubate for 18 h. Twenty-four hours after infection, DMSO (1:1000) or 10× PLX4720 (in DMSO) was added to a final concentration of 100, 10, 1, 0.1, 0.01, 0.001, 0.0001 or 0.00001 μM. Cell viability was assayed using WST-1 (Roche), per manufacturer recommendation, 4 days after the addition of PLX4720.
Cultured cells were seeded into 96-well plates (3,000 cells per well) for all melanoma cell lines; 1,500 cells were seeded for A375. Twenty-four hours after seeding, serial dilutions of the relevant compound were prepared in DMSO added to cells, yielding final drug concentrations ranging from 100 μM to […], with the final volume of DMSO not exceeding 1%. Cells were incubated for 96 h following addition of drug. Cell viability was measured using the WST1 viability assay (Roche). Viability was calculated as a percentage of control (untreated cells) after background subtraction. A minimum of six replicates were performed for each cell line and drug combination. Data from growth-inhibition assays were modeled using a nonlinear regression curve fit with a sigmoid dose-response. […] Sigmoid-response curves that crossed the 50% inhibition point at or above 10 μM have GI50 values annotated as >10 μM. For single-dose studies, the identical protocol was followed, using a single dose of indicated drug (1 μM unless otherwise noted).

[3] = system: WM266.4; experiment: Western blot of CREB and ERK phosphorylation; conditions: WM266.4, 1 hr treatment
Experimental: (§1) Adherent cells were washed once with ice-cold PBS and lysed passively with 1% NP-40 buffer [150 mM NaCl, 50 mM Tris pH 7.5, 2 mM EDTA pH 8, 25 mM NaF and 1% NP-40] containing 2× protease inhibitors (Roche) and 1× Phosphatase Inhibitor Cocktails I and II (CalBioChem). Lysates were quantified (Bradford assay), normalized, reduced, denatured (95° C.) and resolved by SDS gel electrophoresis on 4-20% Tris/Glycine gels (Invitrogen). […] After incubation with the appropriate secondary antibody (anti-rabbit, anti-mouse or anti-goat IgG, IRDye-linked; 1:15,000 dilution; IRDye 800CW, 1:20,000 IRDye 680LT, LiCOR), proteins were imaged using an Odyssey CLx scanner (LiCOR).

[4] = system: WM266.4; experiment: Quantitative RT/PCR of MITF, FOS, NR4A1 and NR4A2 mRNA; conditions: within 1 hour of treatment, absence of MEK inhibitor
Experimental: mRNA was extracted from WM266.4 using the RNeasy kit (Qiagen) and homogenized using the Qiashredder kit (Qiagen). Total mRNA was used for subsequent reverse transcription using the SuperScript III First-Strand Synthesis SuperMix (Invitrogen). 5 μl of reverse-transcribed cDNA was used for quantitative PCR using SYBR Green PCR Master Mix and gene-specific primers, in quadruplicate, using an ABI PRISM 7900 Real Time PCR System. Primers used for detection were as follows; NR4A2 forward: 5′-GTTCAGGCGCAGTATGGGTC-3′ (SEQ ID NO: 7); NR4A2 reverse: 5′-AGAGTGGTAACTGTAGCTCTGAG-3′ (SEQ ID NO: 8); NR4A1 forward: 5′-ATG CCC TGT ATC CAA GCC C-3′ (SEQ ID NO: 9); NR4A1 reverse: 5′-GTGTAGCCGTCCATGAAGGT-3′ (SEQ ID NO: 10); DUSP6 forward: 5′-CTG CCG GGC GTT CTA CCT-3′ (SEQ ID NO: 11); DUSP6 reverse: 5′-CCAGCCAAGCAATGTACCAAG-3′ (SEQ ID NO: 12); MITF forward: 5′-TGC CCA GGC ATG AAC ACA C-3′ (SEQ ID NO: 13); MITF reverse: 5′-TGGGAAAAATACACGCTGTGAG-3′ (SEQ ID NO: 14); FOS forward: 5′-CACTCCAAGCGGAGACAGAC-3′ (SEQ ID NO: 15); FOS reverse: 5′-AGGTCATCAGGGATCTTGCAG-3′ (SEQ ID NO: 16); TBP forward: 5′-CCCGAAACGCCGAATATAATCC-3′ (SEQ ID No: 17); TBP reverse: 5′-GACTGTTCTTCACTCTTGGCTC-3′ (SEQ ID NO: 18). Relative expression was determined using the comparative CT method (Applied Biosystems).

[5] = system: WM266.4; experiment: Immunoblots of MITF, SOX10, acetylated histone H3 and other proteins in melanoma cells; conditions: for acetylated histone H3: WM266.4, 18 hours; for SOX10 and MITF expression: WM266.4, independent of ERK phosphorylation
Experimental: as §1

Nc1ccccc1NC(=O)c1ccc(CNC(=O)OCc2cccnc2)cc1 [Entinostat]
sensitivity of forskolin-treated cells to MAPK-pathway inhibitors [1]: restored sensitivity to MAPK-pathway inhibitors to levels approaching parental cells

Cn1cnc2c(F)c(Nc3ccc(Br)cc3Cl)c(C(=O)NOCCO)cc21 [AZD6244]
effect of ectopic GEF expression on sensitivity to the inhibitor [2]: decreased sensitivity
sensitivity of A375 to the inhibitor [2]: sensitive

Cc1cnc(Nc2ccc(F)cc2Cl)nc1-c1c[nH]c(C(=O)N[C@H](CO)c2cccc(Cl)c2)c1 [VTX-11E]
effect of ectopic GEF expression on sensitivity to the inhibitor [2]: decreased sensitivity
sensitivity of A375 to the inhibitor [2]: sensitive

C=C[C@@]1(C)CC(=O)[C@]2(O)[C@@]3(C)[C@@H](O)CCC(C)(C)[C@@H]3[C@H](O)[C@H](OC(C)=O)[C@@]2(C)O1 [forskolin]
ERK phosphorylation [3]: no effect
increases in mRNA expression of MITF, FOS, NR4A1 and NR4A2 [4]: 2- to 20 fold

Cc1[nH]c2ccccc2c1CCNCc1ccc(/C=C/C(=O)NO)cc1 [Panobinostat]
acetylated histone H3 [5]: increases
SOX10 and MITF expression [5]: reduction
sensitivity of forskolin-treated cells to MAPK-pathway inhibitors [1]: restored sensitivity to MAPK-pathway inhibitors to levels approaching parental cells

O=C(CCCCCCC(=O)Nc1ccccc1)NO [Vorinostat]
acetylated histone H3 [5]: increases
SOX10 and MITF expression [5]: reduction

O=S(=O)(NCCNC/C=C/c1ccc(Br)cc1)c1cccc2cnccc12 [H89]
effect on forskolin-mediated rescue of MITF protein expression ([5]; WM266.4, 10 μM H89 pre-treatment): largely abrogated

Source: US20150141470A1, “DIAGNOSTIC AND TREATMENT METHODS IN PATIENTS HAVING OR AT RISK OF DEVELOPING RESISTANCE TO CANCER THERAPY” (The Broad Institute, Inc., priority 2012, published 2015)
